Data published in patent publication US20250115894A1, “Three-dimensional model of exposed microbial membranes at gas-liquid interface and preparation method thereof” (priority 2023, published 2025).
Where a name gives a salt, the structure may show the parent alone.

Experiments:
[1] = test system: Recombinant Escherichia coli strains with the rec A genetic pathway; test: Fluorescent signal of rec A recombinant strains exposed to dimethyl sulfate solution, immobilized versus not immobilized; type: cell-based; conditions: 50 mg/L solution of dimethyl sulfate
[2] = test system: 29 recombinant Escherichia coli strains carrying plasmids with different genetic pathways; test: In-situ gaseous exposure genotoxicity detection with hydrogel beads containing immobilized recombinant Escherichia coli strains; type: cell-based
From the text: Embodiment 5: Immobilization of 29 recombinant Escherichia coli strains carrying plasmids with different genetic pathways by hydrogel beads for genotoxicity detection of pollutants, including DNA damage, DNA repair, and oxidative stress: • (1) The nutrient in the core was a modified M9 medium, including MgCl2, CaCl2), NaCl, NH4Cl, Tris-HCl (pH-7.4) buffer, and glucose, to ensure the continued survival of the recombinant Escherichia coli strains when exposed at the air-liquid interface. • (2) The hydrogel beads containing immobilized 29 recombinant Escherichia coli strains, were assembled in a specially designed gaseous exposure system. Different concentrations (ranging from 20 to 500 mg/m^3) of gaseous methanesulfonic acid methyl ester were introduced into the exposure system for simultaneous exposure. […] In summary, a rapid analysis of the genotoxicity fingerprint of gaseous methanesulfonic acid methyl ester was conducted from the perspective of in-situ exposure.

[3] = 20 to 500 mg/m^3, as exposure concentration increased

SMILES	Fluorescent signals of rec A strains immobilized in hydrogel beads compared to not immobilized [1]	Ina A gene expression (SOS response) ([2]; 20 to 500 mg/m^3)	pol B gene pathway expression (DNA damage/repair) ([2]; 20 to 500 mg/m^3)	rec A gene pathway expression (DNA damage/repair) ([2]; 20 to 500 mg/m^3)	rec N gene pathway expression (DNA damage/repair) ([2]; 20 to 500 mg/m^3)	sox R gene expression (SOS response) ([2]; 20 to 500 mg/m^3)	Kat G gene expression (oxidative stress) [2, 3]	ahp C gene expression (oxidative stress) [2, 3]
COS(=O)(=O)OC [dimethyl sulfate]	stronger fluorescent signals							
COS(C)(=O)=O [methanesulfonic acid methyl ester]		downregulation	significant upregulation	significant upregulation	significant upregulation	downregulation	significant upregulation	significant upregulation
